# Several values for one entry are separate records, joined by “and”; a condition that tells them apart may be missing. Equal values may be shown once. Read-outs that look alike come from different tables or passages of the source.
# What was measured:
# Format in all cases: in vivo
# [1] = system: Crabgrass (Digitaria sanguinalis L.); experiment: Test Example 7: pot test, Example 8 suspension concentrate with Frigate; conditions: 20 days after treatment, duplicate; for inhibition at 5 g/ha / inhibition at 10 g/ha / inhibition at 20 g/ha / inhibition at 40 g/ha: Digitaria sanguinalis, 480 h, read-out: Growth Inhibition (%) of Crabgrass; for inhibition at 20 g/ha: Compound A 20 g/ha; for inhibition at 40 g/ha: Compound A 40 g/ha
# Method: (§1) Crabgrass (Digitaria sanguinalis L.) seeds were sown in 1/1,000,000-hectare pots filled with upland soil and arranged in a duplicate system. When the crabgrass plants grew to a 3- to 3.3-leaf stage, the oil-based suspension concentrate obtained in Example 8 was diluted with 500 liters/hectare of water containing a predetermined amount of Frigate and was applied foliarly to the plants with a small spray gun.
# Twenty days after treatment, the growth inhibition of plants was evaluated with visual observation in the same manner as in Teat Example 1 and are shown in Table 7.
# [2] = system: Common lambsquarters (Chenopodium album L.); experiment: Test Example 8: pot test, Example 8 suspension concentrate with Frigate; conditions: 408 h, 17 days after treatment, duplicate, read-out: Growth Inhibition (%) of Common Lambsquarters; for inhibition at 5 g/ha: Compound A 5 g/ha; for inhibition at 10 g/ha: Compound A 10 g/ha; for inhibition at 20 g/ha: Compound A 20 g/ha; for inhibition at 40 g/ha: Compound A 40 g/ha
# Method: as §1, with “Common lambsquarters (Chenopodium album” for “Crabgrass (Digitaria sanguinalis”, “common lambsquarters” for “crabgrass”, “8-” for “3-”, “9-leaf” for “3.3-leaf”
# Seventeen days after treatment, the growth inhibition of plants was evaluated with visual observation in the same manner as in Test Example 1 and are shown in Table 8.
# [3] = system: Crabgrass (Digitaria sanginalis L.); experiment: Test Example 11: pot test, Example 8 suspension concentrate with kinds of EFAS; conditions: EFAS: No addition, 23 days after treatment, duplicate
# Method: as §1, with “sanginalis” for “sanguinalis”, “4-leaf” for “3- to 3.3-leaf”, “200” for “500”, “an ethoxylated fatty amine type surfactant (EFAS)” for “Frigate”
# Twenty three days after treatment, the growth inhibition of plants was evaluated with visual observation in the same manner as in Test Example 1 and are shown in Table 11.
# corn plants = experiment: Test Example 13: field plot test, injury on corn; conditions: Example 8 suspension concentrate, 4 days after treatment, 0 for no injury to 5 for severe injure
# Source text: (§2) In field plots of 4 m² (1 m × 4 m) unit arranged in a duplicate system, seeds of corn, crabgrass (Digitaria sanguinalis L.) common lambsquarters (Chenopodium album L.), slender amaranth (Amaranthus viridis L.), velvetleaf (Abutilon theophrasti MEDIC.) and common cocklebur (Xanthium strumarium L.) were sown and grown. Also, green foxtail (Setaria viridis L.) and barnyardgrass (Echinochloa crus-galli L.) were allowed to grow spontaneously. When the plants grew to certain stages (corn: 4.2 to 6.0-leaf stage, crabgrass: 3.2 to 5.0-leaf stage, common lambsquarters: 3.0 to 6.0-leaf stage, slender amaranth: 2.0 to 5.0-leaf stage, velvetleaf: 1.5 to 4.0-leaf stage, common cocklebur: cotyledonal to 3.5-leaf stage, green foxtail: 3.0 to 5.0-leaf stage and barnyardgrass: 3.0 to 5.0-leaf stage), the oil-based suspension concentrate obtained in Example 8 was diluted with 200 liters/hectare of water containing a predetermined amount of Frigate and was applied foliarly to the plants with a small spray gun.
# On the other hand, 4 days after treatment, corn plants were examined for condition of injury (degree of discoloration and yellowing) with visual observation and the results are also shown in Table 13 (0 for no injury to 5 for severe injure).
# total evaluation = experiment: Test Example 13: field plot test, total evaluation of growth inhibition; conditions: Example 8 suspension concentrate, 27 days after treatment, field plots; for inhibition at 40 g/ha: Compound A 40 g/ha
# Source text: as §2
# Twenty seven days after treatment, the growth inhibition of plants except for corn plants was evaluated with visual observation in the same manner as in Test Example 1 and are shown in Table 13.
# [4] = Frigate 0.125 % by volume, Compound A 5 g/ha
# [5] = Frigate: No addition, Compound A 30 g/ha
smiles,measurement,setting,value
"COc1cc(OC)nc(NC(=O)NS(=O)(=O)c2ncccc2C(=O)N(C)C)n1 [Compound A, N-[(4,6-dimethoxypyrimidin-2-yl)aminocarbonyl]-3-dimethylaminocarbonyl-2-pyridinesulfonamide]",inhibition at 5 g/ha,[1]; [4],40%
same,inhibition at 10 g/ha,"[1]; Frigate 0.125 % by volume, Compound A 10 g/ha",85%
same,inhibition at 20 g/ha,[1]; Frigate 0.125 % by volume,90%
same,inhibition at 40 g/ha,[1]; Frigate 0.125 % by volume,100%
same,inhibition at 5 g/ha,"[1]; Frigate 0.25 % by volume, Compound A 5 g/ha",50%
same,inhibition at 10 g/ha,"[1]; Frigate 0.25 % by volume, Compound A 10 g/ha",95%
same,inhibition at 20 g/ha,[1]; Frigate 0.25 % by volume,100%
same,inhibition at 40 g/ha,[1]; Frigate 0.25 % by volume,100%
same,inhibition at 5 g/ha,"[1]; Frigate 0.5 % by volume, Compound A 5 g/ha",75%
same,inhibition at 10 g/ha,"[1]; Frigate 0.5 % by volume, Compound A 10 g/ha",95%
same,inhibition at 20 g/ha,[1]; Frigate 0.5 % by volume,100%
same,inhibition at 40 g/ha,[1]; Frigate 0.5 % by volume,98%
same,inhibition at 5 g/ha,"[1]; Frigate: No addition, Compound A 5 g/ha",0%
same,inhibition at 20 g/ha,[1]; Frigate: No addition,70%
same,inhibition at 40 g/ha,[1]; Frigate: No addition,85%
same,Growth Inhibition (%) of Crabgrass,[1]; [4],45%
same,Growth Inhibition (%) of Crabgrass,"[1]; Frigate: No addition, Compound A 10 g/ha",5%
same,inhibition at 5 g/ha,[2]; Frigate 0.25 % by volume,50%
same,inhibition at 10 g/ha,[2]; Frigate 0.25 % by volume,60%
same,inhibition at 20 g/ha,[2]; Frigate 0.25 % by volume,80%
same,inhibition at 40 g/ha,[2]; Frigate 0.25 % by volume,90%
same,inhibition at 5 g/ha,[2]; Frigate 0.5 % by volume,55%
same,inhibition at 10 g/ha,[2]; Frigate 0.5 % by volume,70%
same,inhibition at 20 g/ha,[2]; Frigate 0.5 % by volume,85%
same,inhibition at 40 g/ha,[2]; Frigate 0.5 % by volume,90%
same,inhibition at 5 g/ha,[2]; Frigate: No addition,0%
same,inhibition at 10 g/ha,[2]; Frigate: No addition,0%
same,inhibition at 20 g/ha,[2]; Frigate: No addition,50%
same,inhibition at 40 g/ha,[2]; Frigate: No addition,80%
same,inhibition at 10 g/ha,"[3]; Digitaria, 552 h, Compound A 10 g/ha, read-out: Growth Inhibition (%) of Crabgrass",70%
same,inhibition at 20 g/ha,"[3]; Digitaria, 552 h, Compound A 20 g/ha, read-out: Growth Inhibition (%) of Crabgrass",98%
same,inhibition at 40 g/ha,"[3]; Digitaria, 552 h, Compound A 40 g/ha, read-out: Growth Inhibition (%) of Crabgrass",98%
same,Growth Inhibition (%) of Crabgrass,[3]; Compound A 10 g/ha,55%
same,Growth Inhibition (%) of Crabgrass,[3]; Compound A 20 g/ha,90%
same,Injury on Corn,"corn plants; Frigate 0.1 % by volume, Compound A 30 g/ha",1.0
same,Injury on Corn,"corn plants; Frigate 0.1 % by volume, Compound A 40 g/ha",1.0
same,Injury on Corn,"corn plants; Frigate 0.2 % by volume, Compound A 20 g/ha",1.0
same,Injury on Corn,"corn plants; Frigate 0.2 % by volume, Compound A 30 g/ha",1.0 and 1.5
same,Injury on Corn,"corn plants; Frigate 0.2 % by volume, Compound A 40 g/ha",1.5 and 2.0
same,Injury on Corn,corn plants; [5],1.0
same,Injury on Corn,"corn plants; Frigate: No addition, Compound A 40 g/ha",1.0 and 1.5
same,Injury on Corn,"corn plants; Frigate: No addition, Compound A 50 g/ha",1.0
same,inhibition at 30 g/ha,"total evaluation; 648 h, Frigate 0.1 % by volume, Compound A 30 g/ha, read-out: Growth Inhibition (%) TE",75%
same,inhibition at 40 g/ha,"total evaluation; 648 h, Frigate 0.1 % by volume, read-out: Growth Inhibition (%) TE",90%
same,inhibition at 20 g/ha,"total evaluation; 648 h, Frigate 0.2 % by volume, Compound A 20 g/ha, read-out: Growth Inhibition (%) TE",65%
same,inhibition at 30 g/ha,"total evaluation; 648 h, Frigate 0.2 % by volume, Compound A 30 g/ha, read-out: Growth Inhibition (%) TE",80%
same,inhibition at 40 g/ha,"total evaluation; 648 h, Frigate 0.2 % by volume, read-out: Growth Inhibition (%) TE",85%
same,inhibition at 30 g/ha,"total evaluation; 648 h, Frigate: No addition, Compound A 30 g/ha, read-out: Growth Inhibition (%) TE",50%
same,inhibition at 40 g/ha,"total evaluation; 648 h, Frigate: No addition, read-out: Growth Inhibition (%) TE",70%
same,inhibition at 50 g/ha,"total evaluation; 648 h, Frigate: No addition, Compound A 50 g/ha, read-out: Growth Inhibition (%) TE",75%
same,Growth Inhibition (%) TE,total evaluation; [5],60%

# Source: EP0598515A1, “Method for herbicidal activity-enhancing, activity-enhanced herbicidal composition and activity-enhancing composition” (ISHIHARA SANGYO KAISHA LTD., priority 1992, dated 1994)
